In PubChem BioAssay (NCI):
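In this assay, cells in 96-well plates receive the compound at five concentrations for 48 hours. Endpoints are linearly interpolated between the surrounding concentrations. The concentration for full growth arrest is given as TGI.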

Assays:
Assay in all cases: growth of human tumour cells (NCI), 48 h
A498 renal = system: A498 renal
A549 NSCLC = system: A549 NSCLC
HOP-62 NSCLC = system: HOP-62 NSCLC
IGROV1 ovarian = system: IGROV1 ovarian
MCF7 breast = system: MCF7 breast
MOLT-4 leukemia = system: MOLT-4 leukemia
OVCAR-8 ovarian = system: OVCAR-8 ovarian
SF-539 CNS = system: SF-539 CNS
SNB-19 CNS = system: SNB-19 CNS
UO-31 renal = system: UO-31 renal

SMILES | TGI (A498 renal) | TGI (A549 NSCLC) | TGI (HOP-62 NSCLC) | TGI (IGROV1 ovarian) | TGI (MCF7 breast) | TGI (MOLT-4 leukemia) | TGI (OVCAR-8 ovarian) | TGI (SF-539 CNS) | TGI (SNB-19 CNS) | TGI (UO-31 renal)
N#C/C(=C\c1cc(Cl)cc(Cl)c1)c1ccccn1 | 8.25 µM | > 100 µM | > 100 µM | > 100 µM | > 100 µM | > 100 µM | > 100 µM | > 100 µM | > 100 µM | > 100 µM
Cc1cc(C)c2c(n1)S(=O)(=O)N(CCCN1CCN(c3cccc(C(F)(F)F)c3)CC1)c1c-2nn(C)c1C | > 100 µM | > 100 µM | > 100 µM | > 100 µM | > 100 µM | > 100 µM | > 100 µM | > 100 µM | > 100 µM | > 100 µM
CN1C(=O)[C@@H]2[C@@H]3c4ccccc4N(S(=O)(=O)C(F)(F)F)[C@@H]3c3[nH]c4ccccc4c3[C@@H]2C1=O | > 100 µM | > 100 µM | > 100 µM | 5.43 µM | > 100 µM | 47 µM | > 100 µM | > 100 µM | > 100 µM | > 100 µM
NCCCNC1(c2cc3ccccc3s2)CCCCC1 | 9.03 µM | 21.5 µM | 27.8 µM | 24.3 µM | 12.2 µM | 15.7 µM | 24.4 µM | 4.23 µM | 22.5 µM | 8.44 µM
O=S(=O)(O)ON=C1c2ccccc2-c2ccccc21 | > 100 µM | > 100 µM | > 100 µM | > 100 µM | > 100 µM | > 100 µM | > 100 µM | > 100 µM | > 100 µM | > 100 µM
CC(=O)O[C@@H]1C2=C(C)C=C(O2)[C@H]2O[C@]2(C)C[C@H]2C=C(C(=O)O2)[C@H](OC(C)=O)CC1[C@@]1(C)CO1 (stereo not given in full) | > 100 µM | > 100 µM | 57.9 µM | 30.8 µM | 44.8 µM | 25.2 µM | > 100 µM | 83.4 µM | > 100 µM | 51.4 µM
Cc1cccnc1/N=C/c1c(O)n(C)c(=O)[nH]c1=O | > 100 µM | > 100 µM | > 100 µM | > 100 µM | > 100 µM | > 100 µM | > 100 µM | > 100 µM | > 100 µM | > 100 µM
Nc1nc(N)c2ncn(Cc3ccccc3CCl)c2n1 | > 100 µM | > 100 µM | > 100 µM | > 100 µM | > 100 µM | > 100 µM | > 100 µM | > 100 µM | > 100 µM | > 100 µM
CC(=O)OCC1OC(SC2OC(COC(C)=O)C(OC(C)=O)C(OC(C)=O)C2OC(C)=O)C(OC(C)=O)C(OC(C)=O)C1OC(C)=O (stereo not given) | > 100 µM | > 100 µM | > 100 µM | > 100 µM | > 100 µM | > 100 µM | > 100 µM | > 100 µM | > 100 µM | > 100 µM
CC(C)[Si](OC1=CCC[C@H]2NC(=O)[C@@H](Cc3ccccc3)[C@@]12C)(C(C)C)C(C)C | 19.2 µM | 12.6 µM | 24.2 µM | 26.7 µM | 13.4 µM | 14.7 µM | 24.8 µM | 19.1 µM | 22.5 µM | 22.3 µM
CCCCN1C(=O)c2c(-c3sccc3N)sc(-c3sccc3N)c2C1=O | 76.8 µM | > 100 µM | 41.5 µM | > 100 µM | > 100 µM | > 24.4 µM | > 72.1 µM | 32.8 µM | 44.2 µM | > 51 µM
C#CC1(O)C(COP(=O)(O)OCC2OC(n3ccc(NCCCCCCCCCCCCCCCCCC)nc3=O)C(O)C2O)OC(n2ccc(N)nc2=O)C1O (stereo not given) | 59.2 µM | > 55.9 µM | 46.7 µM | 6.02 µM | > 59.7 µM | 40 µM | 35.3 µM | 34.5 µM | 40.6 µM | 2.53 µM
Fc1ccc2nc3n(c2c1)C(c1c(Cl)cccc1Cl)SC3 (stereo not given) | > 100 µM | > 100 µM | > 100 µM | > 100 µM | > 100 µM | > 100 µM | > 100 µM | > 100 µM | > 100 µM | > 100 µM
COc1ccc2oc(OC)c(CC=C(C)C)c(=O)c2c1C | > 100 µM | > 100 µM | > 100 µM | > 100 µM | > 100 µM | > 100 µM | > 100 µM | > 100 µM | > 100 µM | > 100 µM
Cc1noc2nnn(-c3ccc(Cl)cc3)c(=O)c12 | 27.1 µM | 27.7 µM | 29.7 µM | 19.2 µM | 13.6 µM | 1.94 µM | 29.8 µM | 1.73 µM | 26.1 µM | 8.63 µM
CC(=O)N(O)[C@@H]1CC[C@H](n2cnc3c(N)ncnc32)C1 | > 100 µM | > 100 µM | > 100 µM | > 100 µM | > 100 µM | > 100 µM | > 100 µM | > 100 µM | > 100 µM | > 100 µM
O=C/C=C/c1ccco1 | > 100 µM | > 100 µM | > 100 µM | > 100 µM | > 100 µM | > 100 µM | > 100 µM | > 100 µM | > 100 µM | > 100 µM
CN(C)c1nncc2[nH]cnc12 | > 100 µM | > 100 µM | > 100 µM | > 100 µM | > 100 µM | > 100 µM | > 100 µM | > 100 µM | > 100 µM | > 100 µM
O=c1[nH]c(=O)n(C2CC(O)C(CO)O2)cc1C1=NC1 (stereo not given) | > 100 µM | > 100 µM | > 100 µM | > 100 µM | > 100 µM | > 100 µM | > 100 µM | > 100 µM | > 100 µM | > 100 µM

SMILES | TGI (A498 renal) | TGI (A549 NSCLC) | TGI (HOP-62 NSCLC) | TGI (IGROV1 ovarian) | TGI (MCF7 breast) | TGI (MOLT-4 leukemia) | TGI (OVCAR-8 ovarian) | TGI (SF-539 CNS) | TGI (SNB-19 CNS) | TGI (UO-31 renal)
O=C(CCCCCCC(=O)Nc1cccnc1)NO | > 100 µM | > 100 µM | > 100 µM | > 68.9 µM | > 100 µM | > 100 µM | > 57.5 µM | > 100 µM | > 100 µM | > 100 µM
CCCCCCCCCCCCOP(=O)(O)OCC(N)C(=O)O (stereo not given) | 75.8 µM | > 100 µM | 31.6 µM | > 100 µM | > 100 µM | 36.2 µM | > 100 µM | 51.6 µM | 44 µM | 28.9 µM
COc1cc(COC(=O)N(CC(=O)O)c2ccccc2)c([N+](=O)[O-])cc1OC | > 100 µM | > 100 µM | > 100 µM | > 100 µM | > 100 µM | > 100 µM | > 100 µM | > 100 µM | > 100 µM | > 100 µM
COC(=O)C1=C(O)C(C(=O)OC)[C@]2(O)[C@H](C(=O)OC)[C@H]1C[C@@H](c1c(Cl)cccc1Cl)[C@H]2C(=O)OC (stereo not given in full) | 4.15 µM | 6.21 µM | 10.8 µM | 5.99 µM | 12.3 µM | 5.31 µM | 3.66 µM | 3.78 µM | 5.13 µM | 3.01 µM
Cc1cc(C)nc(SC(C)C(=O)N/N=C/c2ccc(OCc3ccccc3)cc2)n1 (stereo not given) | > 100 µM | > 100 µM | > 100 µM | > 100 µM | 90.5 µM | 86.1 µM | > 100 µM | > 100 µM | > 100 µM | > 100 µM
N#CCCN(CCC#N)c1ccc(/C=C2\N=C(c3ccccc3)N(NC(N)=S)C2=O)cc1 | > 100 µM | > 100 µM | > 100 µM | > 100 µM | > 100 µM | > 100 µM | > 100 µM | > 100 µM | > 100 µM | > 100 µM
Brc1ccc2c([C@H]3CN[C@@H](c4c[nH]c5cc(Br)ccc45)CN3)c[nH]c2c1 | 3.6 µM | 7.39 µM | 23.8 µM | 8.2 µM | 4 µM | 6.48 µM | 3.38 µM | 7.46 µM | 21.8 µM | 13.8 µM
CCOC(=O)c1ccc(C(=O)/C(C(C)=O)=C2\CCCN2C)n1C | > 100 µM | > 100 µM | > 100 µM | > 100 µM | > 100 µM | > 100 µM | > 100 µM | 22.8 µM | > 100 µM | > 100 µM
Cc1ccc(OC2CC(n3cnc4ncnc(Cl)c43)OC2Oc2ccc(C)cc2)cc1 (stereo not given) | > 100 µM | 82.5 µM | 90.2 µM | 55 µM | 29.9 µM | > 100 µM | 26.8 µM | 31.5 µM | 42.5 µM | 23.9 µM
Cn1c(-c2ccccc2)cc2c3ccsc3c3ccsc3c21 | > 100 µM | > 100 µM | > 100 µM | > 100 µM | > 100 µM | > 100 µM | > 100 µM | > 100 µM | > 100 µM | > 100 µM
O=C1[C@@H]2[C@@H](c3ccccc3)[C@]2(Cl)C(=O)[C@H]2[C@H](c3ccccc3)[C@@]12Cl | > 100 µM | > 100 µM | > 100 µM | > 100 µM | > 100 µM | > 100 µM | > 100 µM | > 100 µM | > 100 µM | > 100 µM
COc1ccc(/C=C2\CCC(CNc3ccc(OC)cc3)C2=O)cc1 (stereo not given) | > 66 µM | > 94.1 µM | > 100 µM | 19.2 µM | 13.3 µM | > 40.8 µM | 36.3 µM | 36.4 µM | > 59.2 µM | 36.1 µM
CN(C)c1ccccc1CN1CCCN(Cc2ccccc2N(C)C)C1c1ccncc1 | 24.8 µM | 40.7 µM | 30.3 µM | 28.1 µM | 29.6 µM | 43.6 µM | 29 µM | 36 µM | 33 µM | 13.9 µM
Cc1cc(Cc2c(F)c(F)c(C(c3cc(C)no3)c3c(F)c(F)c(F)c(F)c3F)c(F)c2F)on1 (stereo not given) | > 100 µM | > 100 µM | > 100 µM | > 100 µM | > 100 µM | > 100 µM | > 100 µM | > 100 µM | > 100 µM | > 100 µM
COc1ccc(OC)c(CC2CCc3nc(N)nc(N)c3C2)c1 (stereo not given) | 62 µM | > 100 µM | 24.4 µM | 28.1 µM | 32 µM | > 100 µM | > 100 µM | 22.6 µM | > 81.8 µM | > 75.4 µM
Nc1nc(Cl)cc(NCCC2(CO)CCC2)n1 | > 100 µM | > 100 µM | > 100 µM | > 100 µM | > 100 µM | > 100 µM | > 100 µM | > 100 µM | > 100 µM | > 100 µM
O=C(/C=C/c1ccc(O)c(O)c1)c1cc(O)cc(O)c1 | 33.4 µM | > 100 µM | 36.6 µM | 27.5 µM | 12.7 µM | > 100 µM | 32.8 µM | 20.7 µM | 28.5 µM | 22.6 µM
CCN1CCN(c2nc3ccc([N+](=O)[O-])cc3nc2C(=O)c2ccccc2)CC1 | 73.2 µM | 33.7 µM | 35.6 µM | 18.9 µM | 34.8 µM | > 100 µM | 30.5 µM | 29.7 µM | 71.2 µM | 25.2 µM
CC1C2CC(C(S(=O)(=O)N3CCOCC3)/C2=N\O)C1(C)C (stereo not given) | > 100 µM | > 100 µM | > 100 µM | > 100 µM | > 100 µM | > 100 µM | > 100 µM | > 100 µM | > 100 µM | > 100 µM
